Results reported in patent publication US20250059474A1, “Liquid formulation comprising an alcohol and highly water soluble manganese complex salt catalyst, bleaching formulation and cleaning agent comprising the same” (Catexel GmbH, priority 2023, published 2025).
Where two headings read alike, the source gives them in different places.

Experiments:
[1] = Stability of PVOH pouches containing solvents; settings: 26 weeks at 40° C. then 26 weeks at room temperature
Procedure: In small pouches made from a standard PVOH film, different solvents were added (1 mL), the pouch was sealed using a hot plate (150° C.). The pouches containing the solvent were stored for 26 weeks at 40° C. and then for 26 weeks at room temperature.

[2] = Solubility in water at 20° C.; assay type: physicochemical
[3] = Dissolution and storage stability of MnTACN salts in various solvents; assay type: physicochemical
Procedure: Dissolution of MnTACN-PF6 catalyst in various solvents was performed. First a screening was done in which solvents the PF6 salt of the MnTACN catalyst could be dissolved.

[4] = Dishwash machine tea-stain cleaning experiments; settings: 0 = no cleaning, 100 = complete removal
Procedure: A standard dishwash machine tablet was prepared using the same ingredients as disclosed in WO2022/058039 (Weylchem Performance Products GmbH). Together with each tablet (14 g) on top, either no catalyst was added (blank), 100 mg of Weylclean® FDO X (uncoated granules containing 2 wt-% of MnTACN-PF6 (comparative)) was added, or 82 mg of dipropylene glycol containing 1.64 mg of dissolved MnTACN-SO4 (Exp low MnTACN-SO4) or 100 mg of dipropylene glycol containing 2 mg of dissolved MnTACN-SO4 (Exp high MnTACN-SO4).

[5] = Dowanol PM with 3 wt % citric acid
[6] = dipropylene glycol with 3 wt % of nitric acid
[7] = dipropylene glycol with 3 wt % sulfuric acid
[8] = propylene glycol, no acids added

COC(C)COC(C)CO (stereo not drawn) [Dowanol DPM, dipropylene glycol methyl ether]
stability of PVOH pouches containing the solvent ([1]; solvent without acid, 1 mL): good stability

COCC(C)O (stereo not drawn) [Dowanol PM, propylene glycol methyl ether]
stability of PVOH pouches containing the solvent ([1]; solvent with 3 wt % H2SO4): not stable | stability of PVOH pouches containing the solvent ([1]; solvent with 3 wt % HNO3): good stability | stability of PVOH pouches containing the solvent ([1]; solvent with 3 wt % citric acid): not stable | stability of PVOH pouches containing the solvent ([1]; solvent without acid, 1 mL): not stable

CN1CCN(C)CCN(C)CC1.CN1CCN(C)CCN(C)CC1.O.O.O.[Cl-].[Cl-].[Mn+4].[Mn+4].[O-2].[O-2].[O-2] [MnTACN-Cl2, [Mn^IV2(μ-O)3(Me3-TACN)2]Cl2*3H2O]
solubility in water [2]: greater than 182 g/L | solubility in water ([2]; equated from g/L): > 18.2 wt % | solubility in solvent ([3]; dipropylene glycol, had to be heated): dissolved

CN1CCN(C)CCN(C)CC1.CN1CCN(C)CCN(C)CC1.O=[N+]([O-])[O-].O=[N+]([O-])[O-].[Mn+4].[Mn+4].[O-2].[O-2].[O-2] [MnTACN-NO3, [Mn^IV2(μ-O)3(Me3-TACN)2](NO3)2]
solubility in water [2]: greater than 283 g/L | solubility in water ([2]; equated from g/L): > 28.3 wt % | solubility and stability in solvent [3, 5]: good solubility and stability | solubility and stability in solvent ([3]; Dowanol PM with sulfuric acid): good solubility and stability | solubility and stability in solvent ([3]; Dowanol PM without acid): good solubility and stability | solubility and stability in solvent ([3]; dipropylene glycol): good solubility and stability | solubility and stability in solvent [3, 6]: good solubility and stability | solubility and stability in solvent [3, 7]: good solubility and stability | solubility and stability in solvent [3, 8]: good solubility and stability

CN1CCN(C)CCN(C)CC1.CN1CCN(C)CCN(C)CC1.F[P-](F)(F)(F)(F)F.F[P-](F)(F)(F)(F)F.O.[Mn+4].[Mn+4].[O-2].[O-2].[O-2] [MnTACN-PF6, [Mn^IV2(μ-O)3(Me3-TACN)2](PF6)2*H2O, reference compound]
solubility in water [2]: 10.8 g/L | solubility in solvent ([3]; 1,3-propanol-diol): Poor solubility | solubility in solvent ([3]; 1-hexanol): Poor solubility | solubility in solvent ([3]; 1-propanol): Poor solubility | solubility in solvent ([3]; 2-ethyl-1-hexanol): Poor solubility | solubility in solvent ([3]; 2-propanol): Poor solubility | solubility in solvent ([3]; Dowanol DPM): Poor solubility | solubility and stability in solvent ([3]; Dowanol PM without acid): Poor solubility | solubility in solvent ([3]; acetonitrile): dissolved very well | solubility and stability in solvent ([3]; dipropylene glycol): Poor solubility | solubility in solvent ([3]; ethanol (abs)): Poor solubility | solubility in solvent ([3]; ethyl acetate): Poor solubility | solubility in solvent ([3]; ethylene glycol, after heating): dissolved | solubility in solvent ([3]; formic acid): well soluble | stability (appearance) in solution ([3]; formic acid): turned brown

CN1CCN(C)CCN(C)CC1.CN1CCN(C)CCN(C)CC1.O.O.O.O.O=S(=O)([O-])[O-].[Mn+4].[Mn+4].[O-2].[O-2].[O-2] [MnTACN-SO4, [Mn^IV2(μ-O)3(Me3-TACN)2]SO4*4H2O]
solubility in water [2]: greater than 735 g/L | solubility in water ([2]; equated from g/L): > 73.5 wt % | solubility and stability in solvent [3, 5]: good solubility and stability | solubility and stability in solvent ([3]; Dowanol PM with nitric acid): poor solubility | solubility and stability in solvent ([3]; Dowanol PM with sulfuric acid): poor solubility | solubility and stability in solvent ([3]; Dowanol PM without acid): good solubility and stability | solubility and stability in solvent ([3]; dipropylene glycol): good solubility and stability | solubility and stability in solvent ([3]; dipropylene glycol with 3 wt % citric acid): good solubility and stability | solubility and stability in solvent [3, 6]: precipitation | solubility and stability in solvent [3, 7]: precipitation | solubility and stability in solvent [3, 8]: good solubility and stability | tea-stain cleaning on tea cups ([4]; 14 g tablet + 82 mg dipropylene glycol containing 1.64 mg dissolved catalyst (Exp low)): 80 points | tea-stain cleaning on tea cups ([4]; 14 g tablet + 100 mg dipropylene glycol containing 2 mg dissolved catalyst (Exp high)): 85 points

CN1CCN(C)CCN(C)CC1.CN1CCN(C)CCN(C)CC1.Cc1ccc(S(=O)(=O)[O-])cc1.Cc1ccc(S(=O)(=O)[O-])cc1.[Mn+4].[Mn+4].[O-2].[O-2].[O-2] [MnTACN-Ts2, [Mn^IV2(μ-O)3(Me3-TACN)2](tosylate)2]
solubility in water [2]: greater than 100 g/L | solubility in water ([2]; equated from g/L): > 10 wt % | solubility and stability in solvent ([3]; dipropylene glycol): dissolved

CN1CCN(C)CCN(C)CC1.CN1CCN(C)CCN(C)CC1.O.O.O.O.O=C([O-])c1ccccc1.O=C([O-])c1ccccc1.[Mn+4].[Mn+4].[O-2].[O-2].[O-2] [MnTACN-benzoate, [Mn^IV2(μ-O)3(Me3-TACN)2](benzoate)2*4H2O]
solubility in water [2]: greater than 1000 g/L | solubility and stability in solvent ([3]; dipropylene glycol): dissolved well | stability upon storage in solution ([3]; dipropylene glycol, room temperature for at least 7 months): very high stability
